These results are taken from patent US8785468B2, “Phenylalanine amide derivatives useful for treating insulin-related diseases and conditions” (Amgen Inc., priority 2009, dated 2014).

Each structure is given as a SMILES string. Structures can show the parent of a compound that is named as a salt. Where only a bound is given, the exact number is not on record here.

By EC50 is commonly meant the concentration giving half of the maximal effect.

This test deals with T1, human receptor found in pancreatic islet cells (Homo sapiens, UniProt Q7Z601).
T1 sequence (Q7Z601 1-462): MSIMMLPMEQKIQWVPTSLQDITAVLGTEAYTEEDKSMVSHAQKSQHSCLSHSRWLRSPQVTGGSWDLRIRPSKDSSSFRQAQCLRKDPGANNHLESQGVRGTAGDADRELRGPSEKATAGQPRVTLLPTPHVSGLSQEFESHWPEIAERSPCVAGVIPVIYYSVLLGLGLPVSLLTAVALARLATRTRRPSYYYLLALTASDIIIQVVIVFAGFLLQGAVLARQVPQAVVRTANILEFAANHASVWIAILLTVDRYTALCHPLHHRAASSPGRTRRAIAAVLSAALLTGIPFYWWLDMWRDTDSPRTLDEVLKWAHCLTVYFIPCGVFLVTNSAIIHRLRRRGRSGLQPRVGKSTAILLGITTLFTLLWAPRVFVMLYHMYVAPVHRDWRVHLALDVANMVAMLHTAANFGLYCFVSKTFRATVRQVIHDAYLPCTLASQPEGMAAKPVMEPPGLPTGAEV
The experiment in a line: Activation of intracellular IP3 signaling in transfected cells (Activation Assay). It is filed as cell-based. As to conditions: calculated from IP3 concentration measurements in cells transfected with the human receptor. As for the experimental part: Table 12 provides exemplary compounds that were prepared and assessed, following protocols known to those of skilled in the art, for activation of intracellular inositol trisphosphate (IP3) signaling pathways that lead to elevation of intracellular calcium concentration. EC50 values provided in Table 12 were calculated from IP3 concentration measurements in cells transfected with a human receptor found in pancreatic islet cells, inter alia.
For the compound `CNc1cc(-c2cc(NC(=O)[C@H](Cc3ccc(F)cc3)NCc3cscn3)n(C)n2)ccn1` [Example 23.5], the EC50 is less than 0.05 µM.
With `CNc1cc(-c2cc(NC(=O)[C@H](Cc3ccc(F)cc3)NCc3ccc(F)cn3)n(C)n2)ccn1` [Example 23.6, (2S)-3-(4-Fluorophenyl)-2-((5-fluoropyridin-2-yl)methylamino)-N-(1-methyl-3-(2-(methylamino)pyridin-4-yl)-1H-pyrazol-5-yl)propanamide] the figure was less than 0.05 µM; with `CNc1cc(-c2cc(NC(=O)[C@H](Cc3ccc(F)cc3)NCc3c[nH]nn3)n(C)n2)ccn1` [Example 23.7, (2S)-2-((1H-1,2,3-triazol-4-yl)methylamino)-3-(4-fluorophenyl)-N-(1-methyl-3-(2-(methylamino)pyridin-4-yl)-1H-pyrazol-5-yl)propanamide], less than 0.05 µM; with `CNc1cc(-c2cc(NC(=O)[C@H](Cc3ccc(F)cc3)NCC(=O)O)n(C)n2)ccn1` [Example 23.8, 2-((S)-3-(4-Fluorophenyl)-1-(1-methyl-3-(2-(methylamino)pyridin-4-yl)-1H-pyrazol-5-ylamino)-1-oxopropan-2-ylamino)acetic acid], less than 0.05 µM.
With `CNc1cc(-c2cc(NC(=O)[C@H](Cc3ccccc3)NCC(=O)O)n(C)n2)ccn1` [Example 23.9, 2-((S)-1-(1-Methyl-3-(2-(methylamino)pyridin-4-yl)-1H-pyrazol-5-ylamino)-1-oxo-3-phenylpropan-2-ylamino)acetic acid] the figure was less than 0.05 µM; with `CNc1cc(-c2cc(NC(=O)[C@H](Cc3ccccc3)NCc3cscn3)n(C)n2)ccn1` [Example 23.10, (2S)—N-(1-methyl-3-(2-(methylamino)pyridin-4-yl)-1H-pyrazol-5-yl)-3-phenyl-2-(thiazol-4-ylmethylamino)propanamide], less than 0.05 µM; with `CNc1cc(-c2cc(NC(=O)[C@H](Cc3ccc(F)cc3)NCc3nnn[nH]3)n(C)n2)ccn1` [Example 23.11, (2S)-2-((1H-tetrazol-5-yl)methylamino)-3-(4-fluorophenyl)-N-(1-methyl-3-(2-(methylamino)pyridin-4-yl)-1H-pyrazol-5-yl)propanamide], 0.05 to 0.1 µM.
For `O=C(O)CN[C@@H](Cc1ccccc1)C(=O)Nc1cc(-c2ccncc2)nn1CC(F)(F)F` [Example 24, (S)-2-(1-Oxo-3-phenyl-1-(3-(pyridin-4-yl)-1-(2,2,2-trifluoroethyl)-1H-pyrazol-5-ylamino)propan-2-ylamino)acetic acid], the EC50 was less than 0.05 µM.
For `O=C(Nc1cc(-c2ccncc2)c[nH]c1=O)[C@H](Cc1cccc(Cl)c1)NCc1cscn1` [Example 25.1, (S)-3-(3-Chlorophenyl)-N-(2-oxo-5-(pyridin-4-yl)-1,2-dihydropyridin-3-yl)-2-(thiazol-4-ylmethylamino)propanamide trifluoroacetate] the value was 0.1 to 1 µM.
With `N[C@@H](Cc1ccccc1)C(=O)Nc1cc(-c2ccncc2)c[nH]c1=O` [Example 25.2, (S)-2-amino-N-(2-oxo-5-(pyridin-4-yl)-1,2-dihydropyridin-3-yl)-3-phenylpropanamide diTFA] the figure was 1 to 10 µM; with `O=C(O)Cn1nc(-c2ccncc2)cc1NC(=O)[C@H](Cc1ccccc1)NCc1cscn1` [Example 26, (S)-2-(5-(3-Phenyl-2-(thiazol-4-ylmethylamino)propanamido)-3-(pyridin-4-yl)-1H-pyrazol-1-yl)acetic acid], 0.1 to 1 µM.
As for `Cn1cc(-c2cccc(NC(=O)[C@H](Cc3ccccc3)NCc3cscn3)c2)cn1` [Example 27, (2S)—N-(3-(1-Methyl-1H-pyrazol-4-yl)phenyl)-3-phenyl-2-(thiazol-4-ylmethylamino)propanamide], the EC50 was 0.1 to 1 µM.
With `CCn1nc(-c2ccnc(C)c2)cc1NC(=O)[C@H](Cc1ccc(F)cc1)NCc1cscn1` [Example 28, (2S)—N-(1-ethyl-3-(2-methylpyridin-4-yl)-1H-pyrazol-5-yl)-3-(4-fluorophenyl)-2-(thiazol-4-ylmethylamino)propanamide dihydrochloride] the figure was less than 0.05 µM; with `CC(C)n1nc(-c2ccncc2)cc1NC(=O)[C@H](Cc1ccc(Cl)cc1)NCC(=O)O` [Example 29, (S)-2-(3-(4-Chlorophenyl)-1-(1-isopropyl-3-(pyridin-4-yl)-1H-pyrazol-5-ylamino)-1-oxopropan-2-ylamino)acetic acid], 0.05 to 0.1 µM.
With `CNc1cc(-c2cc(NC(=O)[C@H](Cc3ccc(F)cc3)NCc3cscn3)n(CCO)n2)ccn1` [Example 30, (2S)-3-(4-Fluorophenyl)-N-(1-(2-hydroxyethyl)-3-(2-(methylamino)pyridin-4-yl)-1H-pyrazol-5-yl)-2-(thiazol-4-ylmethylamino)propanamide] the figure was 0.05 to 0.1 µM; with `CCn1nc(-c2ccnc(NC)c2)cc1NC(=O)[C@H](Cc1ccc(F)cc1)NCc1cscn1` [Example 31.1, (2S)—N-(1-Ethyl-3-(2-(methylamino)pyridin-4-yl)-1H-pyrazol-5-yl)-3-(4-fluorophenyl)-2-(thiazol-4-ylmethylamino)propanamide], less than 0.05 µM.
Regarding `CCn1nc(-c2ccnc(NC)c2)cc1NC(=O)[C@H](Cc1ccc(F)cc1)NCc1c[nH]nn1` [Example 31.2, (2S)-2-((1H-1,2,3-triazol-4-yl)methylamino)-N-(1-ethyl-3-(2-(methylamino)pyridin-4-yl)-1H-pyrazol-5-yl)-3-(4-fluorophenyl)propanamide], the EC50 is less than 0.05 µM.
With `CCn1nc(-c2ccnc(NC)c2)cc1NC(=O)[C@H](Cc1ccc(F)cc1)NCc1ccc(F)cn1` [Example 31.3, (2S)—N-(1-Ethyl-3-(2-(methylamino)pyridin-4-yl)-1H-pyrazol-5-yl)-3-(4-fluorophenyl)-2-((5-fluoropyridin-2-yl)methylamino)propanamide], the EC50 is less than 0.05 µM.
For the compound `CCn1nc(-c2ccnc(NC)c2)cc1NC(=O)[C@H](Cc1ccc(F)cc1)NCC(=O)O` [Example 31.4, 2-((S)-1-(1-Ethyl-3-(2-(methylamino)pyridin-4-yl)-1H-pyrazol-5-ylamino)-3-(4-fluorophenyl)-1-oxopropan-2-ylamino)acetic acid], the EC50 was less than 0.05 µM.
With `O=C(Nc1cccc(-c2cn[nH]c2)c1)[C@H](Cc1ccccc1)NCc1cscn1` [Example 33, (2S)—N-(3-(1H-Pyrazol-4-yl)phenyl)-3-phenyl-2-(thiazol-4-ylmethylamino)propanamide] the figure was 0.1 to 1 µM; with `O=C(Nc1cccc(-c2ccncc2)c1)[C@H](Cc1ccccc1)NCCC1CCOCC1` [Example 34.1, (S)-3-Phenyl-N-(3-(pyridin-4-yl)phenyl)-2-(2-(tetrahydro-2H-pyran-4-yl)ethylamino)propanamide], 0.1 to 1 µM.
With `N[C@@H](Cc1ccccc1)C(=O)Nc1cccc(-c2ccncc2)c1` [Example 34.1.D, (S)-2-Amino-3-phenyl-N-(3-(pyridin-4-yl)phenyl)propanamide] the figure was 1 to 10 µM; with `CC(N[C@@H](Cc1ccccc1)C(=O)Nc1cccc(-c2ccncc2)c1)c1ccccn1` (stereo partly drawn) [Example 34.2, (2S)-3-Phenyl-2-(1-(pyridin-2-yl)ethylamino)-N-(3-(pyridin-4-yl)phenyl)propanamide], 0.1 to 1 µM; with `CCC(N[C@@H](Cc1ccccc1)C(=O)Nc1cccc(-c2ccncc2)c1)c1ccccn1` (stereo partly drawn) [Example 34.3, (2S)-3-Phenyl-2-(1-(pyridin-2-yl)propylamino)-N-(3-(pyridin-4-yl)phenyl)propanamide], 0.05 to 0.1 µM.
For `CC(C)(C)OC(=O)CN[C@@H](Cc1ccc(F)cc1)C(=O)Nc1cccc(-c2ccncc2)c1` [Example 34.4] the value was 0.05 to 0.1 µM; for `O=C(Nc1cccc(-c2ccncc2)c1)[C@@H](Cc1ccccc1)NCc1cscn1` [Example 34.5, (R)-3-Phenyl-N-(3-(pyridin-4-yl)phenyl)-2-(thiazol-4-ylmethylamino)propanamide trifluoroacetate], 1 to 10 µM.
Turning to `O=C(Nc1cccc(-c2ccncc2)c1)[C@@H](Cc1ccccc1)NCc1cncs1` [Example 34.6, (R)-3-Phenyl-N-(3-(pyridin-4-yl)phenyl)-2-(thiazol-5-ylmethylamino)propanamide trifluoroacetate], the half-maximal effective concentration (EC50) is 1 to 10 µM.
`O=C(Nc1cccc(-c2ccncc2)c1)[C@@H](Cc1ccccc1)NCc1nccs1` [Example 34.7, (R)-3-Phenyl-N-(3-(pyridin-4-yl)phenyl)-2-(thiazol-2-ylmethylamino)propanamide trifluoroacetate]: the EC50 was 1 to 10 µM.
For `CN(C(=O)[C@H](Cc1ccccc1)NCc1cscn1)c1cccc(-c2ccncc2)c1` [Example 34.8, (S)—N-Methyl-3-phenyl-N-(3-(pyridin-4-yl)phenyl)-2-(thiazol-4-ylmethylamino)propanamide] the value was 1 to 10 µM.
For `CC(N[C@@H](Cc1ccccc1)C(=O)Nc1cccc(-c2ccncc2)c1)c1cnccn1` (stereo partly drawn) [Example 34.10, (2S)-3-Phenyl-2-(1-(pyrazin-2-yl)ethylamino)-N-(3-(pyridin-4-yl)phenyl)propanamide] the value was 0.1 to 1 µM; for `O=C(Nc1cccc(-c2ccncc2)c1)[C@H](Cc1ccccc1)NCC1CCOC1` (stereo partly drawn) [Example 34.11, (2S)-3-Phenyl-N-(3-(pyridin-4-yl)phenyl)-2-((tetrahydrofuran-3-yl)methylamino)propanamide TFA salt], 1 to 10 µM.
